Patent US9643993B2, “Crystalline polymorphic form of ulipristal acetate” (ASKA PHARMACEUTICAL CO., LTD., priority 2012, dated 2017)
Where two headings read alike, the source gives them in different places.

What was measured:
[1] = dog, in vivo, po, 25 mg/kg
Method: (§1) For each of ulipristal acetate samples obtained in Examples and Comparative Example, the absorption test was performed as follows. The ulipristal acetate was filled into a gelatin capsule shell (manufacturer: Qualicaps Co., Ltd., size: No. 00, lot: C0079A) to produce a capsule. The capsule was orally administered to 6 female dogs at a dose of 25 mg/kg (in terms of ulipristal acetate). The blood was collected 0.5, 1, 2, 4, 6, 24, and 48 hours after the oral administration. Then the sample was centrifuged to give a plasma. The concentration of the ulipristal acetate in the plasma was measured by a LC-MS/MS (liquid chromatography-tandem mass spectrometry) method, and the elimination half-life (T112), the time to the maximum plasma concentration (Tmax), the maximum plasma concentration (Cmax), the area under the plasma concentration-time curve (AUC), and the mean residence time (MRT) were calculated. The capsule was administered to each female dog twice at dosing intervals (washout period) of one week by crossover method.

[2] = Solubility in ethanol/water (10/90) mixed solvent at 37° C.; details: ethanol/water (volume ratio)=10/90, 37° C., stirred 5 minutes, HPLC
Method: [Solubility] For each of ulipristal acetate samples obtained in Examples and Comparative Example, the solubility was determined as follows. The ulipristal acetate (40 mg) was added to 40 mL of a mixed solvent containing ethanol and water [ethanol/water (volume ratio)=10/90] having a temperature of 37° C. to prepare a test sample. The test sample was stirred by a magnetic stirrer for 5 minutes. Then a portion of the suspension was separated. The solid of the separated portion was filtered out, and the ulipristal acetate content of the residue was quantitatively determined using a high-performance liquid chromatography (column: ODS, column temperature: 40° C., eluate: 0.1% trifluoroacetic acid aqueous solution/acetonitrile mixture (volume ratio 3:2), rate of flow: 1.0 mL/minute, detection: UV 302 nm), and the solubility was calculated.

Absorption test in dog = details: female dogs, oral capsule, 25 mg/kg
Method: as §1

SMILES	AUC0-inf [1] [ng·h/mL]	AUC0-t [1] [ng·h/mL]	Cmax [1] [ng/mL]	MRTinf [1] [h]	MRTlast [1] [h]	T1/2 [1] [h]	Tmax [1] [h]	Solubility [2] [µg/mL]	AUC0-inf (Absorption test in dog; plasma, LC-MS/MS) [ng·h/mL]	AUC0-t (Absorption test in dog; plasma, LC-MS/MS) [ng·h/mL]	Cmax (Absorption test in dog; plasma, LC-MS/MS) [ng/mL]	MRTinf (Absorption test in dog; plasma, LC-MS/MS) [h]	MRTlast (Absorption test in dog; plasma, LC-MS/MS) [h]	T1/2 (Absorption test in dog; plasma, LC-MS/MS) [h]	Tmax (Absorption test in dog; plasma, LC-MS/MS) [h]	Pharmacokinetics compared with Comparative Example (in words) (Absorption test in dog; summary of Table 5)
CC(=O)O[C@]1(C(C)=O)CCC2C3CCC4=CC(=O)CCC4=C3[C@@H](c3ccc(N(C)C)cc3)C[C@@]21C (stereo partly drawn) [Comparative Example, 17alpha-acetoxy-11beta-(4-N,N-dimethylaminophenyl)-19-norpregna-4,9-diene-3,20-dione]	9390.7	8447.4	1490.7	16.6	11.8	14.9	1.8									
CC(=O)O[C@]1(C(C)=O)CCC2C3CCC4=CC(=O)CCC4=C3[C@@H](c3ccc(N(C)C)cc3)C[C@@]21C (stereo partly drawn) [Example 1, 17alpha-acetoxy-11beta-(4-N,N-dimethylaminophenyl)-19-norpregna-4,9-diene-3,20-dione]								11.2	18078.4	12194.3	2200.2	37.7	11.7	37.3	1.2	excellent pharmacokinetics
